Test results: US20090048112A1, “Novel Herbicides” (SYNGENTA LIMITED, priority 2005, published 2009)

Experiments:
Format in all cases: in vivo
[1] = system: Echinochloa crus-galli (barnyard grass); experiment: Example B2: herbicidal action post emergence, 500 g/ha; conditions: applied to the foliage, 13 days after application, 0 is no damage to plants, 100 is plants completely dead
Description: (§1) Monocotyledonous and dicotyledonous test plants were sown in seed trays in standard compost and were grown for eight days. The trays were watered twice daily or as required. The chemicals were applied by track sprayer to the foliage. The application was carried out with an aqueous suspension of the test substances, prepared as a formulation of 50% acetone in water with 0.5% Tween 20™ (CAS RN 9005-64-5), to achieve a field equivalent of 1000 l/ha. The application rate of the test substances was 500 g/ha. A visual assessment of the herbicidal effect was made at 13 days after application. The following percentage scale was used for assessment: 0, 5, 10, 20, 30, 40, 50, 60, 70, 80, 90, 95, 100 (where O is no damage to plants and 100 is plants are completely dead).

[2] = system: Stellaria media (chickweed); experiment: as above; conditions: applied to the foliage, 13 days after application, 0 is no damage to plants, 100 is plants completely dead
Description: as §1

[3] = system: Alopecurus myosuroides (slender foxtail); experiment: as above; conditions: applied to the foliage, 13 days after application, 0 is no damage to plants, 100 is plants completely dead
Description: as §1

[4] = system: Amaranthus retroflexus (redroot pigweed); experiment: as above; conditions: applied to the foliage, 13 days after application, 0 is no damage to plants, 100 is plants completely dead
Description: as §1

[5] = system: Monocotyledonous and dicotyledonous test plants; experiment: Example B1: herbicidal action prior to emergence (pre-emergence), 500 g/ha; conditions: 13 days after application, 0 = no damage, 100 = plants completely dead; for ALOMY herbicidal effect (visual assessment, percentage scale): Alopecurus myosuroides (slender foxtail); for AMARE herbicidal effect (visual assessment, percentage scale): Amaranthus retroflexus (redroot pigweed); for ECHCG herbicidal effect (visual assessment, percentage scale): Echinochloa crus-galli (barnyard grass); for STEME herbicidal effect (visual assessment, percentage scale): Stellaria media (chickweed)
Description: as §1, with “standard compost.” for “standard compost and were grown for eight days.”, “sprayer at” for “sprayer to”, “the soil surface.” for “the foliage.”, “(where 0” for “(where O”

[6] = system: Monocotyledonous and dicotyledonous test plants; experiment: Example B3: herbicidal action prior to emergence (pre-emergence), 96-cell seed trays, 1000 g/ha; parameters: key: 0 is no damage to plant; 5 is total damage to plant; conditions: 9 days after application; for AGSTE herbicidal effect (visual assessment, scale 0-5): Agrostis tenius (Colonial bentgrass); for AMARE herbicidal effect (visual assessment, scale 0-5): Amaranthus retroflexus (redroot pigweed); for DIGSA herbicidal effect (visual assessment, scale 0-5): Digitaria sanguinalis (hairy finger-grass); for POATR herbicidal effect (visual assessment, scale 0-5): Poa trivialis (rough blue grass); for SETIT herbicidal effect (visual assessment, scale 0-5): Setaria italica (foxtail millet)
Description: Monocotyledonous and dicotyledonous test plants were sown in sterilised standard soil in seed trays each with 96 cells. The seed trays were stored under controlled conditions in a climatic chamber for one day (cultivation at 23° C. during the day and 17° C. at night; 13 hours of light; 50-60% humidity). The chemicals were applied to the soil surface. The application was carried out with an aqueous suspension of the test substances, prepared as a formulation in water with 10% dimethyl sulfoxide (CAS RN 67-68-5), to achieve a field equivalent of 1000 l/ha. The application rate of the test substances was 1000 g/ha. The plants were grown on in the climatic chamber for 9 days (cultivation at 24° C. during the day and 19° C. at night; 13 hours of light; 50-60% humidity). A visual assessment of the herbicidal effect was made at 9 days after application. The following scale was used for assessment: 0, 1, 2, 3, 4 and 5 (where 0 is no damage to plant and 5 is total damage to plant).

Compound: Cn1nc(C(F)(F)F)c(C(F)(F)S(=O)(=O)c2ncc(Cl)s2)c1OCC(F)(F)F [Compound No. 1.037]
- ECHCG, visual assessment of the herbicidal effect [1]: 20%
- STEME, visual assessment of the herbicidal effect [2]: 70%
- ALOMY, visual assessment of the herbicidal effect [3]: 90%
- AMARE, visual assessment of the herbicidal effect [4]: 95%
- ALOMY herbicidal effect (visual assessment, percentage scale) [5]: 60%
- AMARE herbicidal effect (visual assessment, percentage scale) [5]: 100%
- ECHCG herbicidal effect (visual assessment, percentage scale) [5]: 95%
- STEME herbicidal effect (visual assessment, percentage scale) [5]: 95%

Compound: Cc1cnc([S+]([O-])Cc2c(C(F)(F)F)nn(C)c2OCC(F)(F)F)s1 (racemic) [Compound 1.074]
- AGSTE herbicidal effect (visual assessment, scale 0-5) [6]: 5
- AMARE herbicidal effect (visual assessment, scale 0-5) [6]: 3
- DIGSA herbicidal effect (visual assessment, scale 0-5) [6]: 5
- POATR herbicidal effect (visual assessment, scale 0-5) [6]: 5
- SETIT herbicidal effect (visual assessment, scale 0-5) [6]: 4
- ALOMY herbicidal effect (visual assessment, percentage scale) [5]: 70%
- AMARE herbicidal effect (visual assessment, percentage scale) [5]: 95%
- ECHCG herbicidal effect (visual assessment, percentage scale) [5]: 0%
- STEME herbicidal effect (visual assessment, percentage scale) [5]: 80%

Compound: Cn1nc(C(F)(F)F)c(CS(=O)(=O)c2ncc(Br)s2)c1Cl [Compound No. 1.006, 5-bromo-2-(5-chloro-1-methyl-3-trifluoromethyl-1H-pyrazol-4-ylmethanesulfonyl)-thiazole]
- ECHCG, visual assessment of the herbicidal effect [1]: 80%
- STEME, visual assessment of the herbicidal effect [2]: 0%
- ALOMY, visual assessment of the herbicidal effect [3]: 70%
- AMARE, visual assessment of the herbicidal effect [4]: 30%
- ALOMY herbicidal effect (visual assessment, percentage scale) [5]: 90%
- AMARE herbicidal effect (visual assessment, percentage scale) [5]: 95%
- ECHCG herbicidal effect (visual assessment, percentage scale) [5]: 95%
- STEME herbicidal effect (visual assessment, percentage scale) [5]: 30%

Compound: COCCOc1c(CS(=O)(=O)c2ncc(Cl)s2)c(C(F)(F)F)nn1C [1.052]
- ECHCG, visual assessment of the herbicidal effect [1]: 70%
- STEME, visual assessment of the herbicidal effect [2]: 10%
- ALOMY, visual assessment of the herbicidal effect [3]: 80%
- AMARE, visual assessment of the herbicidal effect [4]: 50%
- ALOMY herbicidal effect (visual assessment, percentage scale) [5]: 80%
- AMARE herbicidal effect (visual assessment, percentage scale) [5]: 100%
- ECHCG herbicidal effect (visual assessment, percentage scale) [5]: 95%
- STEME herbicidal effect (visual assessment, percentage scale) [5]: 90%

Compound: COCCOc1c(C[S+]([O-])c2ncc(Cl)s2)c(C(F)(F)F)nn1C (racemic) [1.051]
- ECHCG, visual assessment of the herbicidal effect [1]: 80%
- STEME, visual assessment of the herbicidal effect [2]: 70%
- ALOMY, visual assessment of the herbicidal effect [3]: 70%
- AMARE, visual assessment of the herbicidal effect [4]: 70%
- ALOMY herbicidal effect (visual assessment, percentage scale) [5]: 80%
- AMARE herbicidal effect (visual assessment, percentage scale) [5]: 100%
- ECHCG herbicidal effect (visual assessment, percentage scale) [5]: 70%
- STEME herbicidal effect (visual assessment, percentage scale) [5]: 100%

Compound: Cn1nc(OC(F)F)c(CS(=O)(=O)c2ncc(Cl)s2)c1C(F)(F)F [Compound 1.055]
- AGSTE herbicidal effect (visual assessment, scale 0-5) [6]: 4
- AMARE herbicidal effect (visual assessment, scale 0-5) [6]: 2
- DIGSA herbicidal effect (visual assessment, scale 0-5) [6]: 5
- POATR herbicidal effect (visual assessment, scale 0-5) [6]: 5
- SETIT herbicidal effect (visual assessment, scale 0-5) [6]: 5
- ALOMY herbicidal effect (visual assessment, percentage scale) [5]: 95%
- AMARE herbicidal effect (visual assessment, percentage scale) [5]: 0%
- ECHCG herbicidal effect (visual assessment, percentage scale) [5]: 100%
- STEME herbicidal effect (visual assessment, percentage scale) [5]: 0%

Compound: Cn1nc(C(F)(F)F)c(CSc2ncc([N+](=O)[O-])s2)c1OCC(F)(F)F [Compound No. 1.061]
- ECHCG, visual assessment of the herbicidal effect [1]: 80%
- STEME, visual assessment of the herbicidal effect [2]: 40%
- ALOMY, visual assessment of the herbicidal effect [3]: 40%
- AMARE, visual assessment of the herbicidal effect [4]: 40%
- ALOMY herbicidal effect (visual assessment, percentage scale) [5]: 80%
- AMARE herbicidal effect (visual assessment, percentage scale) [5]: 100%
- ECHCG herbicidal effect (visual assessment, percentage scale) [5]: 95%
- STEME herbicidal effect (visual assessment, percentage scale) [5]: 95%

Compound: Cn1nc(C(F)(F)F)c(CS(=O)(=O)c2ncc(Cl)s2)c1OC(F)F [1.058]
- ECHCG, visual assessment of the herbicidal effect [1]: 70%
- STEME, visual assessment of the herbicidal effect [2]: 0%
- ALOMY, visual assessment of the herbicidal effect [3]: 60%
- AMARE, visual assessment of the herbicidal effect [4]: 80%
- ALOMY herbicidal effect (visual assessment, percentage scale) [5]: 30%
- AMARE herbicidal effect (visual assessment, percentage scale) [5]: 100%
- ECHCG herbicidal effect (visual assessment, percentage scale) [5]: 95%
- STEME herbicidal effect (visual assessment, percentage scale) [5]: 10%

Compound: Cn1nc(C(F)(F)F)c(C[S+]([O-])c2ncc(Br)s2)c1OCC(F)(F)F (stereo not shown) [Compound No. 1.002, 5-bromo-2-[1-methyl-5-(2,2,2-trifluoroethoxy)-3-trifluoromethyl-1H-pyrazol-4-ylmethanesulfinyl]-thiazole]
- ECHCG, visual assessment of the herbicidal effect [1]: 95%
- STEME, visual assessment of the herbicidal effect [2]: 90%
- ALOMY, visual assessment of the herbicidal effect [3]: 95%
- AMARE, visual assessment of the herbicidal effect [4]: 95%
- ALOMY herbicidal effect (visual assessment, percentage scale) [5]: 95%
- AMARE herbicidal effect (visual assessment, percentage scale) [5]: 100%
- ECHCG herbicidal effect (visual assessment, percentage scale) [5]: 95%
- STEME herbicidal effect (visual assessment, percentage scale) [5]: 100%

Compound: CCOc1c(C[S+]([O-])c2ncc(Br)s2)c(C(F)(F)F)nn1C (racemic) [1.022]
- ECHCG, visual assessment of the herbicidal effect [1]: 80%
- STEME, visual assessment of the herbicidal effect [2]: 80%
- ALOMY, visual assessment of the herbicidal effect [3]: 60%
- AMARE, visual assessment of the herbicidal effect [4]: 70%
- ALOMY herbicidal effect (visual assessment, percentage scale) [5]: 95%
- AMARE herbicidal effect (visual assessment, percentage scale) [5]: 100%
- ECHCG herbicidal effect (visual assessment, percentage scale) [5]: 95%
- STEME herbicidal effect (visual assessment, percentage scale) [5]: 90%

Compound: Cn1nc(C(F)(F)F)c(CSc2ncc(Cl)s2)c1OCC(F)(F)F [Compound No. 1.013]
- ECHCG, visual assessment of the herbicidal effect [1]: 50%
- STEME, visual assessment of the herbicidal effect [2]: 80%
- ALOMY, visual assessment of the herbicidal effect [3]: 60%
- AMARE, visual assessment of the herbicidal effect [4]: 60%
- ALOMY herbicidal effect (visual assessment, percentage scale) [5]: 95%
- AMARE herbicidal effect (visual assessment, percentage scale) [5]: 95%
- ECHCG herbicidal effect (visual assessment, percentage scale) [5]: 80%
- STEME herbicidal effect (visual assessment, percentage scale) [5]: 95%

Compound: Cn1nc(C(F)(F)F)c(CS(=O)(=O)c2ncc(Cl)s2)c1S(C)(=O)=O [Compound No. 1.093]
- AGSTE herbicidal effect (visual assessment, scale 0-5) [6]: 5
- AMARE herbicidal effect (visual assessment, scale 0-5) [6]: 4
- DIGSA herbicidal effect (visual assessment, scale 0-5) [6]: 5
- POATR herbicidal effect (visual assessment, scale 0-5) [6]: 5
- SETIT herbicidal effect (visual assessment, scale 0-5) [6]: 3

Compound: Cn1nc(C(F)(F)F)c(CS(=O)(=O)c2ncc(Cl)s2)c1OCC(F)F [Compound 1.117]
- AGSTE herbicidal effect (visual assessment, scale 0-5) [6]: 5
- AMARE herbicidal effect (visual assessment, scale 0-5) [6]: 5
- DIGSA herbicidal effect (visual assessment, scale 0-5) [6]: 5
- POATR herbicidal effect (visual assessment, scale 0-5) [6]: 5
- SETIT herbicidal effect (visual assessment, scale 0-5) [6]: 5

Compound: Cn1nc(C(F)(F)F)c(CS(=O)(=O)c2ncc(Br)s2)c1OCC(F)(F)F [Compound No. 1.003, 5-bromo-2-[1-methyl-5-(2,2,2-trifluoroethoxy)-3-trifluoromethyl-1H-pyrazol-4-ylmethanesulfonyl]-thiazole]
- ECHCG, visual assessment of the herbicidal effect [1]: 90%
- STEME, visual assessment of the herbicidal effect [2]: 10%
- ALOMY, visual assessment of the herbicidal effect [3]: 80%
- ALOMY herbicidal effect (visual assessment, percentage scale) [5]: 95%
- AMARE herbicidal effect (visual assessment, percentage scale) [5]: 95%
- ECHCG herbicidal effect (visual assessment, percentage scale) [5]: 95%
- STEME herbicidal effect (visual assessment, percentage scale) [5]: 70%

Compound: Cn1nc(C(F)(F)F)c(CSc2ncc(Cl)s2)c1OC(CF)CF [Compound No. 1.112]
- AGSTE herbicidal effect (visual assessment, scale 0-5) [6]: 5
- AMARE herbicidal effect (visual assessment, scale 0-5) [6]: 4
- DIGSA herbicidal effect (visual assessment, scale 0-5) [6]: 5
- POATR herbicidal effect (visual assessment, scale 0-5) [6]: 0
- SETIT herbicidal effect (visual assessment, scale 0-5) [6]: 0
